Reference: patent US20240148745A1, “COMPOUNDS FOR USE IN PROGRESSIVE MULTIPLE SCLEROSIS” (FONDAZIONE CENTRO SAN RAFFAELE, priority 2021, published 2024)
Entries after “also recorded” stand apart in the source; their conditions may differ.

Assays:
[1] = system: rat oligodendrocyte progenitor CG4 line; assay: Differentiation assay on rat oligodendrocyte progenitor CG4 line (HCS, mCherry+); format: cell-based; conditions: secondary screen of 49 selected compounds, 1 μM, 5 days
In short: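 Double-reporter CG4 cells (mCherry in mature oligodendrocytes, EGFP in all lineage stages) proliferated 24 h, then given compounds at 1 μM for 5 days of differentiation, ⅔ medium changed at day 3. 9cis-RA as positive control, basal medium and 0.1% DMSO as negative; triplicates imaged by HCS, 35 fields/well.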

[2] = system: rat primary OPC cultures; assay: Differentiation of rat primary OPC into MBP+ OLs; format: cell-based; conditions: 96 h, 4 days of differentiation, read-out: MBP+ differentiation (MBP+/SOX10+ OLs plus compounds / plus basal medium)
In short: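 Primary rat OPCs were differentiated for 4 days with compounds at […], in triplicate over 3 independent experiments. Cells were immunolabelled for CNPase, MBP and SOX10, and MBP+ oligodendrocytes were counted by imaging. Results are fold increase in MBP+/SOX10+ cells over basal medium; 9-cis-RA ([…]) was the positive control.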

[3] = system: human iPS-derived neuroprecursors; assay: Differentiation of human iPS-derived neuroprecursors into MBP+ oligodendrocytes; format: cell-based; conditions: 1 μM in minimal medium, p<0.05
Excerpt: NPC bearing a doxycycline inducible polycistronic construct containing SOX10, OLIG2 and NKX6.2^29 in a human safe harbor (passages 10 to 25) were singularized on day −3 by treatment with Accutase and plated on Matrigel-coated 12-well plates at a density of 100.000 cells per well in N2B27-medium containing equal parts of neurobasal (Invitrogen) and DMEM-F12 medium (Invitrogen) with 1:100 B27 supplement lacking vitamin A (Invitrogen), 1:200 N2 supplement (Invitrogen), 1% penicillin/streptomycin/glutamine (PSG), 3 μM CHIR99021 (Axon Medchem), 150 μM ascorbic acid and 0.5 μM SAG. The next day medium was changed to N2B27-medium containing 1 μg/ml doxycycline. On DO medium was changed to glial-induction medium (GIM) consisting of DMEM-F12 with 1:100 B27 supplement lacking vitamin A, 1:200 N2 supplement, 1% PSG, 1 μM SAG, 10 ng/mL NT3 (Peprotech), 10 ng/mL IGF-I (Peprotech), 200 μM AA (Sigma), 1:1000 Trace Elements B (Corning). For full medium conditions 10 ng/ml T3 was added. On Day 2 medium was changed to glial-differentiation medium (GDM) comprising DMEM-F12 with 1:100 B27 supplement lacking vitamin A, 1:200 N2 supplement, 1% PSG, 100 μM dbCAMP (Sigma), 100 μM AA, 1:1000. For full medium conditions 60 ng/mL T3, Trace Elements B 10 ng/mL, IGF-I, 10 ng/mL and NT3 were added to the culture. GDM was changed every other day. On day 7 cells were detached by treatment with Accutase and re-plated on laminin coated 48-well plates at densities of 10.000-12.000 cells per well. After 24 h cells were treated in minimal medium with either vehicle alone [0.01% (vol/vol) DMSO] as a negative control, 60 ng/mL T3 as a positive control, or with a drug candidate dissolved in DMSO. Medium was changed every other day. On D16 doxycycline was removed from the medium. Cells were fixed on D21 and analyzed via immunocytochemistry.
Immunocytochemistry. Cells were initially fixed with 4% PFA treatment for 20 min, RT. Following three washes with PBS cells were incubated with blocking solution containing 5% normal goat serum (NGS) and 5% FCS (fetal calf serum) in PBS for 30 min at RT to prevent unspecific binding of the antibodies. To detect intracellular antigens cells were permeabilized by adding 0.5% Triton X-100 to the Blocking-solution. Cells treated with Triton X-100 were washed three times with PBS each time for 5 min at RT. Primary antibodies (rat anti-MBP,1:50, Abcam, AB7349) were applied overnight, 4° C., in blocking solution. The next day cells were washed 3 times with PBS at RT, and afterwards incubated with secondary antibodies (AF488 Alexa Fluor anti-rat (goat), 1:500, Jackson/Dianova, #112-545-167) diluted in PBS for 1 h at RT. Secondary antibodies were subsequently removed by washing 3 times with PBS. Afterwards PBS containing a Dapi staining for nuclei was added for 5 minutes and afterwards washed off with PBS. Cells were kept at 4° C. until imaging.
Imaging and evaluation. From each condition (triplicates) 20-30 pictures were taken randomly chosen by the Dapi-signal. Cell numbers were determined by using an ImageJ Macro to count the nuclei whereas MBP positive cells were subsequently counted manually in black and white images.
The effect on oligodendroglial differentiation of 32 compounds (“Front runners”) was tested. Induced pluripotent stem cells in which the transcription factors SOX10, OLIG2, NKX6.2 were inserted in a doxycycline inducible manner into a human safe harbor were differentiated into neural stem cells. Differentiation into oligodendrocytes was induced by addition of doxycycline. Cells were cultured either in a minimal medium (MM) (negative control) or in MM with the different compounds at a concentration of 1 μM. Addition of T3 to the minimal medium served as a positive control.

[4] = system: H9-derived human neural stem cells; assay: Neurotoxic or regenerative effect screening (CellTiter-Glo); format: cell-based; conditions: 10 μM, three independent screenings
Procedure: H9-derived human neural stem cells (H9 hNSCs, Gibco) were cultured according to the manufacturer's instructions. Briefly, H9 hNSCs were expanded and subsequently differentiated in neurobasal medium, 2% B27, 1% Glutamax, and 1% penicillin/streptomycin, supplemented with 10 ng/ml BDNF (Peprotech), and 2 ng/ml recombinant human GDNF (Peprotech). After 7 days, 500 μM of db-cAMP (N6,2′-O-dibutyryladenosine 3′,5′-cyclic monophosphate, Sigma) was added.
The metabolic activity/viability of selected compounds (32 “Front Runners”+24 compounds from the “Short list”) was evaluated by CellTiter-Glo® Luminescent Cell Viability Assay. The primary screen of Front Runner List (32 compounds)+24 compounds from Short List) on H9-derived human neurons was performed at 10 μM concentration. The validation of hits from primary screen on H9-derived human neurons was performed at 10 μM concentration.
32 Front Runners were tested at 10 μM on H9-derived human neuronal cultures and viability was evaluated by CellTiter-Glo® Luminescent Cell Viability Assay.

[5] = system: mouse cortical neurons; assay: Morphological integrity evaluation, NMDA 8 μM (MAP2 neurite length and branching); format: cell-based; conditions: 3 h pre-treatment, NMDA 8 μM 24 h, Z>0.5 criteria
In short: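 Mouse cortical neurons (14 DIV) pre-treated 3 h with compounds, then exposed 24 h to 8 μM NMDA; fixed, MAP2 immunostained with DAPI. Total neurite length and non-trunk branch number from 15 images/well, triplicates, converted to plate-based Z-scores; NAC positive, staurosporine and NMDA negative controls.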

[6] = system: mouse cortical and striatal neurons; assay: Morphological integrity evaluation, NMDA 20 μM; format: cell-based; conditions: 1 μM, 24 h pre-treatment, NMDA 20 μM 24 h
Procedure: Morphological integrity evaluation. Mouse cortical and striatal neurons (14 DIV) cultured in MW96 plates were exposed to 1 uM to 60 uM concentrations of NMDA and relationship between the NMDA dose and fiber length was evaluated. […] Each of the compound was tested in quadruplicate. The fiber length was evaluated by MAP2 staining (please see the method described earlier).
42 compounds were screened to evaluate the morphological integrity of cortical and striatal neurons upon chronic (24 h) NMDA exposure at concentration of 20 μM with compounds pre-treatment (24 h) in preventive regimen (FIG. 17).

[7] = system: murine cortical neurons (14 DIV); assay: NMDA-mediated neuroprotective assay (CCK8 viability); format: cell-based, mouse; conditions: 1 μM, 3 h pre-treatment, NMDA 8 μM 24 h, p<0.05
In short: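 Primary murine cortical neurons pre-treated with 1 μM compound for 3 or 24 h, then exposed to 8 μM NMDA for 24 h. Viability read by CCK-8 and expressed relative to NMDA-only control; vehicle 0.02% DMSO.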

## COc1ccc(S(=O)(=O)n2cc(CCC(=O)O)c3cc(OC)ccc32)cc1 [Indeglitazar]
[1]
  CG4 differentiation compared with 9cis-RA positive control: promoting differentiation significantly higher than 9cis-RA positive control
[2]
  fold induction at 1 µM: > 1.6
[3]
  differentiation into MBP+ oligodendrocytes: promote significantly (p<0.05) the differentiation into MBP+ oligodendrocytes
[4]
  cumulative Z-scores of ATP production/viability: potential hits

## O=c1[nH]c2cccc(N3CCN(Cc4cccc(-c5ccccc5)c4)CC3)c2o1 [Bifeprunox]
[5]
  preservation of neurite length and network integrity (branching): preserved both neurite length and the network integrity (branching)
[5]; listed as BIFEPRUNOX
  preservation of neurite length and network integrity (branching): two best-performing compounds
[6]
  morphological integrity (neurite length) of cortical and striatal neurons: selected for confirmation

## C=CCc1ccccc1OCC(O)CNC(C)C (stereo not shown) [Alprenolol]
[1]
  CG4 differentiation compared with 9cis-RA positive control: promoting differentiation significantly higher than 9cis-RA positive control
[2]
  fold induction at 1 µM: > 1.6
[4]
  cumulative Z-scores of ATP production/viability: potential hits

## CCC(COC(=O)c1cc(OC)c(OC)c(OC)c1)(c1ccccc1)N(C)C (stereo not shown) [Trimebutine]
[6]
  morphological integrity (neurite length) of cortical and striatal neurons: hit-compound in both cortical and striatal neuronal assays

## Cc1ncc(OC[C@@]2(c3cccc(F)c3)C[C@H]2C(=O)Nc2ccc(F)cn2)c(C)n1 [Lemborexant]
[1]
  CG4 differentiation compared with 9cis-RA positive control: promoting differentiation significantly higher than 9cis-RA positive control
[2]
  fold induction at 1 µM: > 1.6
[4]
  cumulative Z-scores of ATP production/viability: potential hits

## Cc1c(Cn2c(C)nc3c(C(=O)O)cc(N4CCOCC4)cc32)cccc1C(F)(F)F [GSK-2636771]
[6]
  morphological integrity (neurite length) of cortical and striatal neurons: selected for confirmation

## COc1ccc(Cl)cc1[C@]1(F)C(=O)Nc2cc(C(F)(F)F)ccc21 [Flindokalner]
[6]
  morphological integrity (neurite length) of cortical and striatal neurons: selected for confirmation

## O=C(Oc1ccc(Br)cc1)N1CCN2CCC1CC2 [SSR180711]
[7]
  neuroprotection of viability/metabolic activity against NMDA: hit compounds
[5]
  preservation of neurite length and network integrity (branching): preserved both neurite length and the network integrity (branching); also recorded: two best-performing compounds
[6]
  morphological integrity (neurite length) of cortical and striatal neurons: selected for confirmation

## COc1ccc2c(OCc3nnc4ccc(-c5ccccc5)nn34)ccnc2c1 [AMG-208]
[6]
  morphological integrity (neurite length) of cortical and striatal neurons: selected for confirmation

## C[C@@H](C(=O)O)c1ccc(-c2ccccc2)c(F)c1 [Tarenflurbil]
[7]
  neuroprotection of viability/metabolic activity against NMDA: trend versus significance
[6]
  morphological integrity (neurite length) of cortical and striatal neurons: selected for confirmation
